Laboratory results published in patent US10975056B2 (GlaxoSmithKline Intellectual Property Development Limited, priority 2016, dated 2021).
Values joined by “and” are separate entries in the source; they are usually repeats but may differ in a detail not shown here. Equal values may be shown once. Where a name gives a salt, the structure may show the parent alone. Read-outs that look alike come from different tables or passages of the source.

How the values were obtained:
DNMT1 = DNMT1 (Homo sapiens, UniProt P26358); experiment: DNMT1 biochemical activity, breaklight assay and/or SPA assay
Sequence of DNMT1 (P26358 whole entry, looked up): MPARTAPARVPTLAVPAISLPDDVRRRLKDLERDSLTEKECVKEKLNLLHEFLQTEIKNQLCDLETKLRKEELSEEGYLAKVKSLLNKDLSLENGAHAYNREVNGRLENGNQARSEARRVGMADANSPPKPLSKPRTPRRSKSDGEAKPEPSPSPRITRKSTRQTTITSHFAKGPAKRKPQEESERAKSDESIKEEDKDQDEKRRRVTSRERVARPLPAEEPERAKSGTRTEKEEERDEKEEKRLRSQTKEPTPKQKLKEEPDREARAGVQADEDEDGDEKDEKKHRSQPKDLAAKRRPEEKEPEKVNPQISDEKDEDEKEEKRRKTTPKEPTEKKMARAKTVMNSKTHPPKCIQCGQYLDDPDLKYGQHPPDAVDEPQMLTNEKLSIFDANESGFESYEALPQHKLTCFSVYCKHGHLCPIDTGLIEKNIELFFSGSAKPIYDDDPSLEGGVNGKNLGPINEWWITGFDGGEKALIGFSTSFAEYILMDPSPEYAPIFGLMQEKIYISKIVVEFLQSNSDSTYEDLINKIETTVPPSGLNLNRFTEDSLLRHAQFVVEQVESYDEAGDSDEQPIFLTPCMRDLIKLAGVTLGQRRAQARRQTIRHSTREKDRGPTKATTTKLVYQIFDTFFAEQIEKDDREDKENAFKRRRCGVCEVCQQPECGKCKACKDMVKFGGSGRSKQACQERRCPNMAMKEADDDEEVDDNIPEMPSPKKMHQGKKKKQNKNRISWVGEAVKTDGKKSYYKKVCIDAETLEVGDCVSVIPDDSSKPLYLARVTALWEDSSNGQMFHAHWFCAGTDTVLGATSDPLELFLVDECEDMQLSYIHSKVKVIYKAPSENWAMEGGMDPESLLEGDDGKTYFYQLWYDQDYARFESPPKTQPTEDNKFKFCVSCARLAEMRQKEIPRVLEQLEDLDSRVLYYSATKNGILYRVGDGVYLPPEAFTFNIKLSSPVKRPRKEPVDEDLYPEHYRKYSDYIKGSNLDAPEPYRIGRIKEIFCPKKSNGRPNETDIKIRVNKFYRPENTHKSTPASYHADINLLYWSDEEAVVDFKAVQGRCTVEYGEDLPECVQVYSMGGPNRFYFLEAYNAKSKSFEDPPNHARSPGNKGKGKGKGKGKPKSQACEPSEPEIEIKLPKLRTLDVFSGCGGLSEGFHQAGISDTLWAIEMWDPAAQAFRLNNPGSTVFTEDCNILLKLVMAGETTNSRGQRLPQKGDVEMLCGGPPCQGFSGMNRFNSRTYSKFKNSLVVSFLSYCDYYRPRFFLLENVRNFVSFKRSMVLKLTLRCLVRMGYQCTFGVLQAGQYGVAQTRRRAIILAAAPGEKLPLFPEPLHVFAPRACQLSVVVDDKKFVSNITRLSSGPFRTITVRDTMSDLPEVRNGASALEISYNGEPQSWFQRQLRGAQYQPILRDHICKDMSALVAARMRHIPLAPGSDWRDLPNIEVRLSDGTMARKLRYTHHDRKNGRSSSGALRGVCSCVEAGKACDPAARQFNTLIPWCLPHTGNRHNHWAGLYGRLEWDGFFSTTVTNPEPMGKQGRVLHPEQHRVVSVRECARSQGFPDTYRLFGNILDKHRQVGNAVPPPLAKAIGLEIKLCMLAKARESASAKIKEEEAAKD

[1] = test system: erythroid progenitor cells (EPCs); experiment: Fetal hemoglobin (HbF) ELISA in day 7 erythroid progenitor cells; format: cell-based, human; conditions: Homo sapiens, Erythroid progenitor cell, HbF ELISA, day 7 EPCs, 5 days; read-out: EPC ELISA (pEC50 category) (converted);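 further: for fetal hemoglobin induction normalized to vehicle-treated cells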
Summary of the method: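 HbF induction was read by anti-HbF sandwich ELISA (HRP/TMB, OD450) on lysates and normalized to vehicle-treated cells. Cells were day 7 erythroid progenitors derived from human bone marrow CD34+ cells, seeded at 1,000/well with 3 U/mL rhEPO. Compound was given for 5 days at 37 °C at final concentrations […].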

[2] = binned activity in either the breaklight or the SPA assay
[3] = binned activity in either the breaklight or the SPA assay, read-out: DNMT1 BioChemical (pIC50 category) (converted)
[4] = breaklight assay and/or SPA assay, repeated experimental runs, read-out: average pIC50 against DNMT1 (converted)

Q: For `CCc1c(C#N)c(SCc2ccc(C(=O)Nc3cn[nH]c3)cc2)nc(N2CCCN(C)CC2)c1C#N` [Example 543, 4-(((3,5-dicyano-4-ethyl-6-(4-methyl-1,4-diazepan-1-yl)pyridin-2-yl)thio)methyl)-N-(1H-pyrazol-4-yl)benzamide], which “DNMT1 BioChemical (pIC50 category)” value (DNMT1; [2]) is on record?
A: D (Category D: ≥6.5)

Q: And the EC50 [1]?
A: > 31600 nM

Q: Which results are given for `CCc1c(C#N)c(SC(C(N)=O)c2ccc(C(N)=O)cc2)nc(N(C)C)c1C#N` (centres unmarked) [Example 375, 4-(2-Amino-1-((3,5-dicyano-6-(dimethylamino)-4-ethylpyridin-2-yl)thio)-2-oxoethyl)benzamide]?
A: DNMT1 BioChemical (pIC50 category) (DNMT1; [2]): D (Category D: ≥6.5); EC50 [1]: 1000 to 31600 nM

Q: How did the “DNMT1 BioChemical (pIC50 category)” value (DNMT1; [2]) turn out when `CCc1c(C#N)c(SCc2ccc(N3CCCS3(=O)=O)cc2)nc(N2CCC(NCC(C)(C)C)CC2)c1C#N` [Example 603, 2-((4-(1,1-dioxidoisothiazolidin-2-yl)benzyl)thio)-4-ethyl-6-(4-(neopentylamino)piperidin-1-yl)pyridine-3,5-dicarbonitrile] was run?
A: D (Category D: ≥6.5)

Q: And the EC50 [1]?
A: > 31600 nM

Q: For `CCc1c(C#N)c(SC(C(N)=O)c2ccccc2)nc(N2CC(OC(N)=O)C2)c1C#N` (centres unmarked) [Example 259, 1-(6-((2-Amino-2-oxo-1-phenylethylthio-3,5-dicyano-4-ethylpyridin-2-yl)azetidin-3-yl carbamate], which “DNMT1 BioChemical (pIC50 category)” value (DNMT1; [2]) is on record?
A: D (Category D: ≥6.5)

Q: And the EC50 [1]?
A: 316 to 1000 nM

Q: What does the source list for `CCc1c(C#N)c(SC(C(N)=O)c2ccccc2)nc(N2CC(CN)C2)c1C#N` (centres unmarked) [Example 671, 2-((6-(3-(aminomethyl)azetidin-1-yl)-3,5-dicyano-4-ethylpyridin-2-yl)thio)-2-phenylacetamide]?
A: DNMT1 BioChemical (pIC50 category) (DNMT1; [2]): D (Category D: ≥6.5); EC50 [1]: < 316 nM

Q: Which results are given for `CCc1c(C#N)c(S[C@@H](C(N)=O)c2ccccc2)nc(N2CC[C@@](O)(CO)C2)c1C#N` [Example 654, (R)-2-((3,5-dicyano-4-ethyl-6-((S)-3-hydroxy-3-(hydroxymethyl)pyrrolidin-1-yl)pyridin-2-yl)thio)-2-phenylacetamide]?
A: DNMT1 BioChemical (pIC50 category) (DNMT1; [2]): D (Category D: ≥6.5); EC50 [1]: 1000 to 31600 nM

Q: For `CCc1c(C#N)c(SC(C(N)=O)c2ccccc2)nc(N(C)CC(=O)NO)c1C#N` (centres unmarked) [Example 679, 2-((6-((2-amino-2-oxo-1-phenylethyl)thio)-3,5-dicyano-4-ethylpyridin-2-yl)(methyl)amino)-N-hydroxyacetamide], which “DNMT1 BioChemical (pIC50 category)” value (DNMT1; [2]) is on record?
A: D (Category D: ≥6.5)

Q: What about the EC50 [1] of the same compound?
A: 316 to 1000 nM

Q: With `CCc1c(C#N)c(SC(C(N)=O)c2ccccc2)nc(N2CCN(Cc3ccon3)CC2)c1C#N` (centres unmarked) [Example 183, 2-((3,5-Dicyano-4-ethyl-6-(4-(isoxazol-3-ylmethyl)piperazin-1-yl)pyridin-2-yl)thio)-2-phenylacetamide] as the compound, how does the IC50 (DNMT1; [3]) read?
A: 316 to 1000 nM

Q: What about the EC50 [1] of the same compound?
A: 1000 to 31600 nM

Q: With `CCc1c(C#N)c(SCc2ccc(CNC(=O)CNC)cc2)nc(N2CCCN(C)CC2)c1C#N` [Example 358, N-(4-(((3,5-Dicyano-4-ethyl-6-(4-methyl-1,4-diazepan-1-yl)pyridin-2-yl)thio)methyl)benzyl)-2-(methylamino)acetamide] as the compound, how does the “DNMT1 BioChemical (pIC50 category)” value (DNMT1; [2]) read?
A: D (Category D: ≥6.5)

Q: And the EC50 [1]?
A: > 31600 nM

Q: Which “DNMT1 BioChemical (pIC50 category)” value (DNMT1; [2]) does the source give for `CCc1c(C#N)c(S[C@H](C(N)=O)c2ccccc2)nc(N2CC[C@H](OP(=O)(O)O)C2)c1C#N` [Example 417, (S)-1-(6-(((S)-2-amino-2-oxo-1-phenylethyl)thio)-3,5-dicyano-4-ethylpyridin-2-yl)pyrrolidin-3-yl dihydroden phosphate] here?
A: A (Category A: <4.5)

Q: What about the EC50 [1] of the same compound?
A: > 31600 nM

Q: With `CCc1c(C#N)c(SC(C(N)=O)c2ccccc2)nc(N2CCC(N3CCC[C@H]3C)CC2)c1C#N` (stereo partly drawn) [Example 451, 2-((3,5-dicyano-4-ethyl-6-(4-((R)-2-methylpyrrolidin-1-yl)piperidin-1-yl)pyridin-2-yl)thio)-2-phenylacetamide] as the compound, how does the “DNMT1 BioChemical (pIC50 category)” value (DNMT1; [2]) read?
A: D (Category D: ≥6.5)

Q: And the EC50 [1]?
A: < 316 nM

Q: How did the “DNMT1 BioChemical (pIC50 category)” value (DNMT1; [2]) turn out when `CCc1c(C#N)c(SC(C(N)=O)c2ccc(F)cc2)nc(N2CC[C@H](O)C2)c1C#N` (stereo partly drawn) [Example 427, 2-((3,5-dicyano-4-ethyl-6-((S)-3-hydroxypyrrolidin-1-yl)pyridin-2-yl)thio)-2-(4-fluorophenyl) acetamide] was run?
A: D (Category D: ≥6.5)

Q: What about the EC50 [1] of the same compound?
A: 316 to 1000 nM

Q: What does the source list for `CCc1c(C#N)c(SC(C(N)=O)c2ccccc2)nc(N(C)CCN(C)C)c1C#N` (centres unmarked) [Example 493, 2-((3,5-dicyano-6-((2-(dimethylamino)ethyl)(methyl)amino)-4-ethylpyridin-2-yl)thio)-2-phenylacetamide]?
A: DNMT1 BioChemical (pIC50 category) (DNMT1; [2]): D (Category D: ≥6.5); EC50 [1]: 316 to 1000 nM

Q: What does the source list for `CCc1c(C#N)c(SC(C(N)=O)c2ccccc2)nc(N2CCC(C(N)=O)CC2)c1C#N` (centres unmarked) [Example 217, 1-(6-((2-Amino-2-oxo-1-phenylethyl)thio)-3,5-dicyano-4-ethylpyridin-2-yl)piperidine-4-carboxamide]?
A: IC50 (DNMT1; [3]): 316 to 1000 nM; EC50 [1]: 1000 to 31600 nM

Q: How did the “DNMT1 BioChemical (pIC50 category)” value (DNMT1; [2]) turn out when `CN(CCN)c1nc(SC(C(N)=O)c2ccccc2)c(C#N)c(C2CC2)c1C#N` (centres unmarked) [Example 373, 2-((6-((2-Aminoethyl)(methyl)amino)-3,5-dicyano-4-cyclopropylpyridin-2-yl)thio)-2-phenylacetamide, Hydrochloride] was run?
A: D (Category D: ≥6.5)

Q: And the EC50 [1]?
A: 316 to 1000 nM

Q: Which IC50 (DNMT1; [3]) does the source give for `CCc1c(C#N)c(SC(C(N)=O)c2cccc(N3CCCC3)c2)nc(N2CCCN(C)CC2)c1C#N` (centres unmarked) [Example 247, 2-((3,5-Dicyano-4-ethyl-6-(4-methyl-1,4-diazepan-1-yl)pyridin-2-yl)thio)-2-(3-(pyrrolidin-1-yl)phenyl)acetamide] here?
A: 1000 to 31600 nM

Q: What about the IC50 (DNMT1; [4]) of the same compound?
A: ≥ 1000 nM and 1580 nM

Q: What about the EC50 [1] of the same compound?
A: 316 to 1000 nM

Q: Which results are given for `CCc1c(C#N)c(SC(C(N)=O)c2ccccc2)nc(N2CC[C@H](N(C)C)C2)c1C#N` (stereo partly drawn) [Example 539, 2-((3,5-dicyano-6-((S)-3-(dimethylamino)pyrrolidin-1-yl)-4-ethylpyridin-2-yl)thio)-2-phenylacetamide]?
A: DNMT1 BioChemical (pIC50 category) (DNMT1; [2]): D (Category D: ≥6.5); EC50 [1]: 1000 to 31600 nM

Q: What does the source list for `CCc1c(C#N)c(SC(C(N)=O)c2ccccc2)nc(N2CCC[C@@H](CNCC(C)(C)C)C2)c1C#N` (stereo partly drawn) [Example 568, 2-((3,5-dicyano-4-ethyl-6-((S)-3-((neopentylamino)methyl)piperidin-1-yl)pyridin-2-yl)thio)-2-phenylacetamide]?
A: DNMT1 BioChemical (pIC50 category) (DNMT1; [2]): D (Category D: ≥6.5); EC50 [1]: < 316 nM

Q: With `CCc1c(C#N)c(SC(C(N)=O)c2ncccc2F)nc(N2CCCN(C)CC2)c1C#N` (centres unmarked) [Example 220, 2-((3,5-Dicyano-4-ethyl-6-(4-methyl-1,4-diazepan-1-yl)pyridin-2-yl)thio)-2-(3-fluoropyridin-2-yl) acetamide] as the compound, how does the IC50 (DNMT1; [3]) read?
A: 316 to 1000 nM

Q: What about the EC50 [1] of the same compound?
A: < 316 nM

Q: `CCc1c(C#N)c(SCc2ccc(CNC(C)=O)cc2)nc(N(C)CCO)c1C#N` [Example 103, N-(4-(((3,5-Dicyano-4-ethyl-6-((2-hydroxyethyl)(methyl)amino)pyridin-2-yl)thio)methyl)benzyl)acetamide] was tested. Which IC50 (DNMT1; [3]) did it give?
A: 1000 to 31600 nM

Q: What about the IC50 (DNMT1; [4]) of the same compound?
A: ≥ 1000 nM

Q: And the EC50 [1]?
A: 1000 to 31600 nM

Q: For `CCc1c(C#N)c(SC(C(N)=O)c2ccccc2)nc(N(C)CCOCCN)c1C#N` (centres unmarked) [Example 628, 2-((6-((2-(2-aminoethoxy)ethyl)(methyl)amino)-3,5-dicyano-4-ethylpyridin-2-yl)thio)-2-phenylacetamide], which “DNMT1 BioChemical (pIC50 category)” value (DNMT1; [2]) is on record?
A: D (Category D: ≥6.5)

Q: And the EC50 [1]?
A: < 316 nM

Q: `CCc1c(C#N)c(SCc2cnn(CC(O)CO)c2)nc(N2CCC(N)CC2)c1C#N` (centres unmarked) [Example 380, 2-(4-Aminopiperidin-1-yl)-6-(((1-(2,3-dihydroxypropyl)-1H-pyrazol-4-yl)methyl)thio)-4-ethylpyridine-3,5-dicarbonitrile, Hydrochloride] was tested. Which IC50 (DNMT1; [3]) did it give?
A: 316 to 1000 nM

Q: What about the EC50 [1] of the same compound?
A: 1000 to 31600 nM

Q: What does the source list for `CCc1c(C#N)c(SC(C(N)=O)c2ccccc2)nc(N2CCC(OC3COC3)CC2)c1C#N` (centres unmarked) [Example 231, 2-((3,5-Dicyano-4-ethyl-6-(4-(oxetan-3-yloxy)piperidin-1-yl)pyridin-2-yl)thio)-2-phenylacetamide]?
A: IC50 (DNMT1; [3]): 316 to 1000 nM; EC50 [1]: 316 to 1000 nM

Q: How did the IC50 (DNMT1; [3]) turn out when `CCc1c(C#N)c(SCc2ccc(CO)cc2)nc(N2CCCN(C)CC2)c1C#N` [Example 85, 4-Ethyl-2-((4-(hydroxymethyl)benzyl)thio)-6-(4-methyl-1,4-diazepan-1-yl)pyridine-3,5-dicarbonitrile] was run?
A: 316 to 1000 nM

Q: And the IC50 (DNMT1; [4])?
A: 316 to 1000 nM

Q: What about the EC50 [1] of the same compound?
A: 1000 to 31600 nM

Q: `CCc1c(C#N)c(SC(C(N)=O)C2CCNCC2)nc(N(C)C)c1C#N` (centres unmarked) [Example 157, 2-((3,5-dicyano-6-(dimethylamino)-4-ethylpyridin-2-yl)thio)-2-(piperidin-4-yl)acetamide] was tested. Which IC50 (DNMT1; [3]) did it give?
A: 1000 to 31600 nM

Q: What about the EC50 [1] of the same compound?
A: 1000 to 31600 nM

Q: With `CCc1c(C#N)c(SC(C(N)=O)c2ccccc2)nc(N2CCC[C@@H](CNC(=O)C(C)(C)N)C2)c1C#N` (stereo partly drawn) [Example 588, 2-amino-N-(((3S)-1-(6-((2-amino-2-oxo-1-phenylethyl)thio)-3,5-dicyano-4-ethylpyridin-2-yl)piperidin-3-yl)methyl)-2-methylpropanamide] as the compound, how does the “DNMT1 BioChemical (pIC50 category)” value (DNMT1; [2]) read?
A: D (Category D: ≥6.5)

Q: What about the EC50 [1] of the same compound?
A: < 316 nM

Q: How did the “DNMT1 BioChemical (pIC50 category)” value (DNMT1; [2]) turn out when `CCc1c(C#N)c(SC(C(N)=O)c2ccccc2)nc(N(C)CC(=O)NCCn2cnnc2)c1C#N` (centres unmarked) [Example 686, N-(2-(4H-1,2,4-triazol-4-yl)ethyl)-2-((6-((2-amino-2-oxo-1-phenylethyl)thio)-3,5-dicyano-4-ethylpyridin-2-yl)(methyl)amino)acetamide] was run?
A: D (Category D: ≥6.5)

Q: What about the EC50 [1] of the same compound?
A: 1000 to 31600 nM

Q: `CCc1c(C#N)c(S[C@H](C(N)=O)c2ccccc2)nc(N2CC[C@H](O)C2)c1C#N` [Example 320, (S)-2-((3,5-Dicyano-4-ethyl-6-((S)-3-hydroxypyrrolidin-1-yl)pyridin-2-yl)thio)-2-phenylacetamide] was tested. Which IC50 (DNMT1; [3]) did it give?
A: 1000 to 31600 nM

Q: What about the EC50 [1] of the same compound?
A: 316 to 1000 nM
